This note sets out measurements from patent US9295259B2, “Fungicidal substituted 1-{2-[2-halo-4-(4-halogen-phenoxy)-phenyl]-2-alkoxy-3-methyl-butyl}-1H [1,2,4]triazole compounds” (BASF SE, priority 2011, dated 2016).

One assay deals with Septoria tritici. Put plainly: Activity against leaf blotch on wheat caused by Septoria tritici (Septtr), microtest. In kind it is cell-based. The following applies: relative growth vs compound-free control (100%), 405 nm, 7 days after inoculation.
The next assay deals with Phakopsora pachyrhizi. Put plainly: Protective control of soy bean rust on soy beans (Phakpa P2), green house. The assay is classed as in vivo, Phakopsora pachyrhizi on soy bean. Particulars: 16 ppm spray, inoculated 2 days after treatment, % diseased leaf area, untreated control 80.

Consider `COC(C)(Cn1cncn1)c1ccc(Oc2ccc(Cl)cc2)cc1Cl` (stereo not shown) [EP 0126430], for which the “Growth (%) at 0.000125 ppm Septtr” value with Septoria tritici was 63%. Moreover, in the assay with Phakopsora pachyrhizi, the “Disease (%) at 16 ppm Phakpa P2” value is listed as 60%.
In the case of `CCC(Cn1cncn1)(OC)c1ccc(Oc2ccc(Cl)cc2)cc1Cl` (stereo not shown) [U.S. Pat. No. 4,940,720], the “Growth (%) at 0.000125 ppm Septtr” value in the assay with Septoria tritici came out at 53%. The “Disease (%) at 16 ppm Phakpa P2” value in the assay on Phakopsora pachyrhizi is given as 60%.
